The source of these data is US9902696B2, “1,4-substituted piperidine derivatives” (Cephalon, Inc., priority 2015, dated 2018).

SMILES strings stand for the structures. Where a name gives a salt, the structure may show the parent alone.

For the first assay, the target named is T1, recombinant human baculovirus-expressed GST-tagged FASN (Homo sapiens, UniProt P49327).
T1 construct: GST
T1 sequence (P49327 whole entry): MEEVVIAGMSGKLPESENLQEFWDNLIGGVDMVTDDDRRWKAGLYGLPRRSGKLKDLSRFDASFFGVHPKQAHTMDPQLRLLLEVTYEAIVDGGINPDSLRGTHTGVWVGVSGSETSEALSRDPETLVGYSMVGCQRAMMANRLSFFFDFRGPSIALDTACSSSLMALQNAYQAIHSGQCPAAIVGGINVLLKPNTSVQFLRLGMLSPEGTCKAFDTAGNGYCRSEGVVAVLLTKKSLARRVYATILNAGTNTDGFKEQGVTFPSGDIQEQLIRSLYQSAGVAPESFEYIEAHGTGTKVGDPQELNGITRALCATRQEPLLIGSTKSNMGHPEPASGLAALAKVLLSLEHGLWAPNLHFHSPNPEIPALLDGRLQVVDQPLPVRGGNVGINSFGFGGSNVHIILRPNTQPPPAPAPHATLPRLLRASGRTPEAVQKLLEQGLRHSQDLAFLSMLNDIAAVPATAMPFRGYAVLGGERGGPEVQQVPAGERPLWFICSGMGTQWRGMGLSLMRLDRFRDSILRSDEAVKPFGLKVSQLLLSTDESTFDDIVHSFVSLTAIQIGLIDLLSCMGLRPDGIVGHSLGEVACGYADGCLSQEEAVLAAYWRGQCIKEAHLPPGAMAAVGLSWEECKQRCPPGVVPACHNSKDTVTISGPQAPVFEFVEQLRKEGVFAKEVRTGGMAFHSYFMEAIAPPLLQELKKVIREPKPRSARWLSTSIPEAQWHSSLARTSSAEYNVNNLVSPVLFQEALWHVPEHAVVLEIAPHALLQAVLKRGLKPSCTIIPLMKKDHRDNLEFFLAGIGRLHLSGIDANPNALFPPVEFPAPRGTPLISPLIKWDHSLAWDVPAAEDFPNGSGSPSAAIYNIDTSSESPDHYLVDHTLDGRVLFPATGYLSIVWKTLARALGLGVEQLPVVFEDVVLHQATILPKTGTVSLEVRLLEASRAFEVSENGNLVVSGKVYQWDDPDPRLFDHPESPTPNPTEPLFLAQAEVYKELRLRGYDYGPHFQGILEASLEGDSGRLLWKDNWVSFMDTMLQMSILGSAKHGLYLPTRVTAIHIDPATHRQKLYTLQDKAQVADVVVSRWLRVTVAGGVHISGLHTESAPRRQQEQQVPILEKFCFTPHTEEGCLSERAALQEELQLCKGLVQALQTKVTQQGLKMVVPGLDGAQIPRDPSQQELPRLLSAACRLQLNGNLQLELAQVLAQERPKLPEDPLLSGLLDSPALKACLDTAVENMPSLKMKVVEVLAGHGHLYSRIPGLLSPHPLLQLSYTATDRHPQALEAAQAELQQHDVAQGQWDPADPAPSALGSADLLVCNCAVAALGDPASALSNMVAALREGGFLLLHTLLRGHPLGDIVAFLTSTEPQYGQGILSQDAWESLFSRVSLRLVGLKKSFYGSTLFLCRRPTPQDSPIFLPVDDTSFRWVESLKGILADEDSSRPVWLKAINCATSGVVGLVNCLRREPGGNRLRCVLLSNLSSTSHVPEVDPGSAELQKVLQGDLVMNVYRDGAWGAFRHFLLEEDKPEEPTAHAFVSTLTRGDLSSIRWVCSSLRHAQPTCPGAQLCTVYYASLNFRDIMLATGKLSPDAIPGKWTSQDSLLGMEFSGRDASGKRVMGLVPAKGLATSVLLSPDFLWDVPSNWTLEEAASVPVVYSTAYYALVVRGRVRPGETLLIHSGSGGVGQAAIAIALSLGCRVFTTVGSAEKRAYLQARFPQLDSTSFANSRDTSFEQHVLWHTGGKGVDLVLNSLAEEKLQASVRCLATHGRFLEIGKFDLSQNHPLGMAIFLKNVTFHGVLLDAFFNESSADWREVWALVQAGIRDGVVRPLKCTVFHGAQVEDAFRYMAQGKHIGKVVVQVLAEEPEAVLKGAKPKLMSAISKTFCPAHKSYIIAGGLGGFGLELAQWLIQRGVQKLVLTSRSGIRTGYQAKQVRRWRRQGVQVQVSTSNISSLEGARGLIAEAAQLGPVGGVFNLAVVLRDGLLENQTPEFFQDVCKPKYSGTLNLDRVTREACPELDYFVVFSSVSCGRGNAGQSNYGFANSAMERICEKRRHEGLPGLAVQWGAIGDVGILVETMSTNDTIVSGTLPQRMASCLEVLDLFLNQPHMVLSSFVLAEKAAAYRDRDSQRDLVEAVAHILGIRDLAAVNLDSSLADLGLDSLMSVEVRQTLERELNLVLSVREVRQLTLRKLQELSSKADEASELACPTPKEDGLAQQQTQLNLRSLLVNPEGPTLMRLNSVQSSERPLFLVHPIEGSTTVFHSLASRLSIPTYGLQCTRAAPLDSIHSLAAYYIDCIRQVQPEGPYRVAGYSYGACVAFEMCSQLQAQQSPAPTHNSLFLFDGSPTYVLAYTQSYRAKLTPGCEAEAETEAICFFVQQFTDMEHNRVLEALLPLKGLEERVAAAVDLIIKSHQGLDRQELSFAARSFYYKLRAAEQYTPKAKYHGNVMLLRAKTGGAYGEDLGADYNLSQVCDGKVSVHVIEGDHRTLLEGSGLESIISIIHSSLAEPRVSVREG
The experiment in a line: FASN enzyme activity assay, fluorescence-based detection of CoA with CPM. The settings on record: 5 nM FASN, 150 μM NADPH, 10 μM acetyl-CoA, 25 μM malonyl-CoA, 90 minutes incubation; read-out: IC50 data for Additional Compounds of Formulae I-V(a): Activity. It is filed as biochemical. A digest of the protocol:
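CoA product reacted with thiol-reactive CPM (diluted to 50 μM in 70% ethanol), read at 390/530 nm after 30 min. Preceding reaction: 90 min, 5 nM recombinant GST-FASN, 150 μM NADPH, 10 μM acetyl-CoA, 25 μM malonyl-CoA, pH 7.5 HEPES, 0.5% DMSO. IC50s fitted by nonlinear sigmoidal regression.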
Regarding `CCCNC(=O)N1CCC(Oc2ccc(-c3ccn4ccnc4c3C)cc2)CC1` [Example 631, 4-[4-(8-Methylimidazo[1,2-a]pyridin-7-yl)phenoxy]-N-propyl-piperidine-1-carboxamide, HCl], the IC50 is 1 to 99 nM. Take `Cc1c(-c2ccc(OC3CCN(C(=O)CN)CC3)cc2)ccc2cccnc12` [Example 609, 2-Amino-1-[4-[4-(8-methyl-7-quinolyl)phenoxy]-1-piperidyl]ethanone, 2HCl]: the IC50 fell in the range of 1 to 99 nM. For the compound `CCNC(=O)N1CCC(Oc2ccc(-c3ccn4ccnc4c3)cc2)CC1` [Example 628, N-Ethyl-4-(4-imidazo[1,2-a]pyridin-7-ylphenoxy)piperidine-1-carboxamide, HCl], the IC50 lay in the range of 1 to 99 nM. Same read-out and setting: the result for `Cc1c(-c2ccc(OC3CCN(C(=O)Nc4cnn(C)c4)CC3)cc2)ccc2nccn12` [Example 604, 4-[4-(5-Methylimidazo[1,2-a]pyridin-6-yl)phenoxy]-N-(1-methylpyrazol-4-yl)piperidine-1-carboxamide] reads 1000 to 10000 nM; that for `Cc1c(-c2ccc(OC3CCN(C(=O)OC(C)(C)C)CC3)cc2)ccc2nccn12` [Example 605, tert-Butyl 4-[4-(5-methylimidazo[1,2-a]pyridin-6-yl)phenoxy]piperidine-1-carboxylate], 1000 to 10000 nM.

The assay is the same for the next values; noted with them: 5 nM FASN, 150 μM NADPH, 10 μM acetyl-CoA, 25 μM malonyl-CoA, 90 minutes incubation; read-out: IC50 data for Compounds of Formulae I-V/V(a): Activity.
`CCC(=O)N1CCC(Oc2ccc(-c3ccc4cccnc4c3)cc2)CC1` [Example 4, 1-[4-(4-Quinolin-7-yl-phenoxy)-piperidin-1-yl]-propan-1-one]: the IC50 is 1 to 99 nM. On to `COc1ccc2cc(-c3ccc(OC4CCN(C(=O)[C@H]5CCCO5)CC4)cc3)cnc2c1` [Example 262, {4-[4-(7-Methoxyquinolin-3-yl)-phenoxy]-piperidin-1-yl}-(R)-tetrahydro-furan-2-yl-methanone], for which the IC50 is 1 to 99 nM. Same read-out and setting: the result for `COC(=O)N1CCC(Oc2ccc(-c3cnc4ccccc4c3)cc2F)CC1` [Example 15, 4-(2-Fluoro-4-quinolin-3-yl-phenoxy)-piperidine-1-carboxylic acid methyl ester] reads 1000 to 10000 nM.

Turning to `CCC(=O)N1CCC(Oc2ccc(-c3c[nH]c4ccccc34)cc2)CC1` [Example 246, 1-{4-[4-(1H-Indol-3-yl)-phenoxy]-piperidin-1-yl}-propan-1-one], the IC50 fell in the range of 1000 to 10000 nM. On the same count and under the same terms, the result for `CCC(=O)N1CCC(Oc2ccc(-c3cnc4ccccc4c3)cc2F)CC1` [Example 6, 1-[4-(2-Fluoro-4-quinolin-3-yl-phenoxy)piperidin-1-yl]propan-1-one] reads 1 to 99 nM; that for `Cc1cnc2cc(-c3ccc(OC4CCN(C(=O)[C@H]5CCCO5)CC4)cc3)ccc2c1` [Example 281, {4-[4-(3-Methylquinolin-7-yl)-phenoxy]-piperidin-1-yl}-(R)-tetrahydro-furan-2-yl-methanone], 1000 to 10000 nM. Still for that read-out and setting: the result for `CCC(=O)N1CCC(Nc2ccc(-c3cnc4ccccc4c3)cc2)CC1` [Example 526, 1-[4-(4-Quinolin-3-yl-phenylamino)-piperidin-1-yl]-propan-1-one, HCl] reads 1000 to 10000 nM; that for `O=C([C@H]1CCCO1)N1CCC(Oc2ccc(-c3cc4ccccc4cn3)cc2)CC1` [Example 46, [4-(4-Isoquinolin-3-yl-phenoxy)-piperidin-1-yl]-(R)-tetrahydrofuran-2-yl-methanone], 1 to 99 nM; that for `O=C([C@H]1CCCO1)N1CCC(Oc2ccc(-c3ccc4c(Cl)ccnc4c3)cc2)CC1` [Example 257, {4-[4-(4-Chloroquinolin-7-yl)-phenoxy]-piperidin-1-yl}-(R)-tetrahydro-furan-2-yl-methanone, TFA salt], 1 to 99 nM. The same measure, in the same setting: the result for `CC(C)C(=O)N1CCC(Oc2ccc(-c3cnc4ccccc4c3)c(Cl)c2)CC1` [Example 204, 1-[4-(3-Chloro-4-quinolin-3-yl-phenoxy)-piperidin-1-yl]-2-methyl-propan-1-one] reads 100 to 999 nM; that for `CCC(=O)N1CC[C@@H](Oc2ccc(-c3cnc4ccccc4c3)cc2)C1` [Example 345, (R)-1-(3-(4-(quinolin-3-yl)phenoxy)pyrrolidin-1-yl)propan-1-one, HCl], 1000 to 10000 nM. With `O=C(C1CC1)N1CCC(Oc2ccc(-c3cnc4[nH]ccc4c3)cc2)CC1` [Example 33, Cyclopropyl-{4-[4-(1H-pyrrolo[2,3-b]pyridin-5-yl)-phenoxy]-piperidin-1-yl}-methanone], the IC50 was in the range of 100 to 999 nM.

For `Nc1c(-c2ccc(OC3CCN(C(=O)[C@H]4CCCO4)CC3)cc2)cnc2ccccc12` [Example 234, {4-[4-(4-Aminoquinolin-3-yl)-phenoxy]-piperidin-1-yl}-(R)-tetrahydro-furan-2-yl-methanone], the IC50 lay in the range of 100 to 999 nM. In the case of `CN(C)c1c(-c2ccc(OC3CCN(C(=O)[C@H]4CCCO4)CC3)cc2)ccc2cccnc12` [Example 331, [4-[4-[8-(Dimethylamino)-7-quinolyl]phenoxy]-1-piperidyl]-[(2R)-tetrahydro-furan-2-yl]methanone], the IC50 was in the range of 1 to 99 nM. The same measure, in the same setting: the value for `O=C(C1CC1)N1CCC(Oc2ccc(-c3cnc4ccccc4c3)cc2Cl)CC1` [Example 193, [4-(2-Chloro-4-quinolin-3-yl-phenoxy)-piperidin-1-yl]-cyclopropyl-methanone] was 1000 to 10000 nM. Same read-out and setting: the value for `CCC(=O)N1CCC(Oc2ccc(-c3cnc4ccccc4c3Cl)cc2)CC1` [Example 47, 1-{4-[4-(4-Chloroquinolin-3-yl)-phenoxy]-piperidin-1-yl}-propan-1-one] was 1 to 99 nM; that for `CCC(=O)N1CCC(Oc2ccc(-c3cnc4ccccc4c3N3CCOCC3)cc2)CC1` [Example 237, 1-{4-[4-(4-Morpholin-4-yl-quinolin-3-yl)-phenoxy]-piperidin-1-yl}-propan-1-one] was 1000 to 10000 nM; that for `Cc1c(-c2ccc(OC3CCN(C(=O)C(C)(C)O)CC3)cc2)ccc2nccn12` [Example 310, 2-Hydroxy-2-methyl-1-{4-[4-(5-methyl-imidazo[1,2-a]pyridin-6-yl)-phenoxy]-piperidin-1-yl}-propan-1-one] was 1000 to 10000 nM. As to `CCC(=O)N1CCC(Oc2ccc(-c3ccc4cccnc4c3OCCCN3CCCC3)cc2)CC1` [Example 175, 1-(4-{4-[8-(3-Pyrrolidin-1-yl-propoxy)-quinolin-7-yl]-phenoxy}-piperidin-1-yl)-propan-1-one, HCl], the IC50 was in the range of 1000 to 10000 nM. The same measure, in the same setting: the result for `Cc1cccc2cc(-c3ccc(OC4CCN(C(=O)C5CC5)CC4)cc3)cnc12` [Example 487, Cyclopropyl-{4-[4-(8-methylquinolin-3-yl)-phenoxy]-piperidin-1-yl}-methanone] reads 1 to 99 nM; that for `O=C([C@H]1CCCO1)N1CCC(Oc2ccc(-c3cnc4cccc(F)c4c3)cc2)CC1` [Example 28, {4-[4-(5-Fluoroquinolin-3-yl)-phenoxy]-piperidin-1-yl}-(R)-tetrahydrofuran-2-yl-methanone], 1 to 99 nM. Same read-out and setting: the result for `Cc1c(-c2ccc(O[C@H]3CCN4C(=O)CC[C@H]4C3)cc2)ccc2cccnc12` (racemic) [Example 355, (±)-(7S,8aS)-7-(4-(8-Methylquinolin-7-yl)phenoxy)hexahydroindolizin-3 (2H)-one] reads 1000 to 10000 nM; that for `O=C(C1CCC1)N1CCC(Oc2ccc(-c3cc4ccccc4cn3)cc2)CC1` [Example 45, Cyclobutyl-[4-(4-isoquinolin-3-yl-phenoxy)-piperidin-1-yl]-methanone], 1 to 99 nM; that for `O=C(C1CC1)N1CCC(Oc2ccc(-c3ccc(Oc4ccccc4)nc3)cc2)CC1` [Example 390, Cyclopropyl-{4-[4-(6-phenoxy-pyridin-3-yl)-phenoxy]-piperidin-1-yl}-methanone], 1000 to 10000 nM. On the same count and under the same terms, the result for `CCC(=O)N1CCC(Oc2ccc(-c3ccc4c(C)nccc4c3C)cc2)CC1` [Example 472, 1-[4-[4-(1,5-Dimethyl-6-isoquinolyl)phenoxy]-1-piperidyl]propan-1-one HCl] reads 100 to 999 nM. Take `CCC(=O)N1CCC(N(C)C(=O)c2ccc(-c3ccc4cnccc4c3)cc2F)CC1` [Example 158, 2-Fluoro-4-isoquinolin-6-yl-N-methyl-N-(1-propionyl-piperidin-4-yl)-benzamide]: the IC50 lay in the range of 1000 to 10000 nM.

Take `Cc1ccc2ncccc2c1-c1ccc(OC2CCN(C(=O)C3CC3)CC2)cc1` [Example 351, Cyclopropyl(4-(4-(6-methylquinolin-5-yl)phenoxy)piperidin-1-yl)methanone, HCl]: the IC50 lay in the range of 100 to 999 nM. On the same count and under the same terms, the value for `CCC(=O)N1CCC(Oc2ccc(-c3ccc4c(C5CC5)nccc4c3)cc2)CC1` [Example 439, 1-{4-[4-(1-Cyclopropyl-isoquinolin-6-yl)-phenoxy]-piperidin-1-yl}-propan-1-one] was 1000 to 10000 nM; that for `CC(C)Oc1cc2cc(-c3ccc(OC4CCN(C(=O)[C@H]5CCCO5)CC4)cc3)ccc2cn1` [Example 451, {4-[4-(3-Isopropoxyisoquinolin-6-yl)-phenoxy]-piperidin-1-yl}-(R)-tetrahydrofuran-2-yl-methanone] was 1 to 99 nM; that for `CCC(=O)N1CCC(Oc2ccc(-c3cnc4cccnc4c3)cc2)CC1` [Example 12, 1-[4-(4-1,5-Naphthyridin-3-yl-phenoxy)-piperidin-1-yl]-propan-1-one] was 1000 to 10000 nM. Turning to `O=C([C@H]1CCCO1)N1CCC(Oc2ccc(-c3cnc4ccccc4c3Cl)cc2)CC1` [Example 71, {4-[4-(4-Chloroquinolin-3-yl)-phenoxy]-piperidin-1-yl}-(R)-tetrahydro-furan-2-yl-methanone], the IC50 was in the range of 1 to 99 nM. On the same count and under the same terms, the result for `Cc1c(-c2ccc(OC3CCN(C(=O)C4CC4)CC3)c(F)c2)ccc2cccnc12` [Example 227, Cyclopropyl-{4-[2-fluoro-4-(8-methylquinolin-7-yl)-phenoxy]-piperidin-1-yl}-methanone] reads 1 to 99 nM.
